Reference: paper PMC8509398, “Proteolytic Cleavage of Bioactive Peptides and Protease-Activated Receptors in Acute and Post-Colitis” (International Journal of Molecular Sciences, 2021)
Blank lines part the entries; values can stand above or below the molecule they belong to. Residues, ends and D or L forms follow the SMILES beside them.

Experiments:
[1] = molecular target: trypsin-1 (Homo sapiens, UniProt P07477); test: Cleavage of peptides by purified trypsin-1, MALDI-TOF/TOF; conditions: 25 nM protease, 10 µM peptide; for Incubation time at which the first cleavage or decrease of the full-length peptide was observed, trypsin-1: 37 °C, time points 2, 5, 10, 30 min
From the text: (§1) Trypsin-like proteases included in the experiments are trypsin-1, -2 and -3, tryptase (Enzo LifeSciences), thrombin (Sigma-Aldrich) and cathepsin G (Sigma-Aldrich). Trypsin-1, -2 and -3 were produced as described by Koistinen et al. and Wu et al.. Two elastase-like enzymes, neutrophil elastase (Enzo LifeSciences, Farmingdale, NY, USA) and pancreatic elastase I (Sigma-Aldrich) were included as well. All enzymes were from human origin except for pancreatic elastase from porcine pancreas.
(§2) Reaction mixtures with purified enzymes were compiled in an identical way. Each mixture contained an equimolar concentration of protease (25 nM based on) and 10 µM peptide of interest and was incubated for 2, 5, 10 and 30 min at 37 °C. Substance P was added as the standard peptide except for the reaction mixtures with substance P or bradykinin as the peptide of interest, where angiotensin II (Bachem) was added.
(§3) The TFA mixtures were thawed on ice and desalted using C18 zip-tips (Merck Millipore®, Burlington, MA, USA) with a capacity of 5 µg protein. Retained peptide fragments were eluted directly on the MALDI target plate. Next, 0.5 µL of a 2.5 mg/mL α-cyano-4-hydroxycinnamic acid (Sigma-Aldrich) matrix solution (in 70% acetonitrile, 0.1% TFA) was spotted on top of the sample. A 6-Peptide mixture Kit (AB Sciex, Framingham, MA, USA) containing bradykinin (2–9), angiotensin I, glu1-fibrinopeptide, ACTH (1–17), ACTH (18–39) and ACTH (7–38) was diluted with matrix and spotted on the plate as well.
(§4) MS and MS/MS data for peptide fragment identification were obtained with a MALDI-TOF/TOF instrument (4800 MALDI TOF/TOF™, Applied Biosystems, Waltham, MA, USA) and instrument parameters were set using 4000 Series Explorer™ software. MS spectra were recorded in positive reflector mode in a mass range from 500 to 4000 Da and laser intensity of 4500–4800 Hz. The spectra were calibrated using the calibration mixture mentioned above to a mass tolerance of 0.1 Da. MS/MS spectra were recorded with high-energy collision-induced dissociation and the laser intensity was increased by 10%. Precursor mass m/z 1570.65 (Glu1-Fibrinopeptide from the calibration mixture) was used to calibrate the MS/MS spectra to a mass tolerance of 0.1 Da.
(§5) MS and MS/MS spectra were processed using DataExplorer™ software and the obtained output files were uploaded in the MS-PEP data analyzer (https://bioit.shinyapps.io/PARs/ accessed 10/08/2020) for peptide fragment identification. Identified fragments were confirmed using the MS/MS spectra and mMass 5.5.0 by Martin Strohalm. The relative intensities of the fragments were calculated as the ratio of the intensity of the peak of interest to the intensity of the peak of the standard peptide.

[2] = molecular target: T1, trypsin-3 (Homo sapiens, UniProt P35030); test: Cleavage of peptides by purified trypsin-3, MALDI-TOF/TOF; conditions: 25 nM protease, 10 µM peptide; for Incubation time at which the first cleavage or decrease of the full-length peptide was observed, trypsin-3: 37 °C, time points 2, 5, 10, 30 min
T1 sequence (P35030 1-304): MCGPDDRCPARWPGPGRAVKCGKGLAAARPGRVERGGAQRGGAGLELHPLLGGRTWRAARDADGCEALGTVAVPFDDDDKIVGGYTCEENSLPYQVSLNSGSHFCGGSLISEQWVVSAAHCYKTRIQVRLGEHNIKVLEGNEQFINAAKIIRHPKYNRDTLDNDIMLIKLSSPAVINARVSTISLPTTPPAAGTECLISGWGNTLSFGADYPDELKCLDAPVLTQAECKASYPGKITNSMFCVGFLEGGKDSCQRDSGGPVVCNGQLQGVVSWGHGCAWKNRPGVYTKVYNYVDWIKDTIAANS
From the text: as §1, §2, §3, §4, §5

[3] = molecular target: tryptase (Homo sapiens, UniProt Q15661); test: Cleavage of peptides by purified tryptase, MALDI-TOF/TOF; conditions: 25 nM protease, 10 µM peptide; for Incubation time at which the first cleavage or decrease of the full-length peptide was observed, tryptase: 37 °C, time points 2, 5, 10, 30 min
tryptase, sequence (Q15661 31-275): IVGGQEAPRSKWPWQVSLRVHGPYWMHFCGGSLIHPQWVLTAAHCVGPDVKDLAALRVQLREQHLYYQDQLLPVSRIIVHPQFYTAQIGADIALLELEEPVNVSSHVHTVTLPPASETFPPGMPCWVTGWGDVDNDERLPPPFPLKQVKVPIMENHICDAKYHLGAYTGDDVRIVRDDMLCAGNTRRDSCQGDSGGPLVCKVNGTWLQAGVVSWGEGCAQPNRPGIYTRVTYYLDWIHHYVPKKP
From the text: as §1, §2, §3, §4, §5

[4] = molecular target: thrombin (Homo sapiens, UniProt P00734); test: Cleavage of peptides by purified thrombin, MALDI-TOF/TOF; conditions: 25 nM protease, 10 µM peptide; for Incubation time at which the first cleavage or decrease of the full-length peptide was observed, thrombin: 37 °C, time points 2, 5, 10, 30 min
From the text: as §1, §2, §3, §4, §5

[5] = molecular target: T2, cathepsin G (Homo sapiens, UniProt P08311); test: Cleavage of peptides by purified cathepsin G, MALDI-TOF/TOF; conditions: 25 nM protease, 10 µM peptide; for Incubation time at which the first cleavage or decrease of the full-length peptide was observed, cathepsin G: 37 °C, time points 2, 5, 10, 30 min
T2 sequence (P08311 21-255): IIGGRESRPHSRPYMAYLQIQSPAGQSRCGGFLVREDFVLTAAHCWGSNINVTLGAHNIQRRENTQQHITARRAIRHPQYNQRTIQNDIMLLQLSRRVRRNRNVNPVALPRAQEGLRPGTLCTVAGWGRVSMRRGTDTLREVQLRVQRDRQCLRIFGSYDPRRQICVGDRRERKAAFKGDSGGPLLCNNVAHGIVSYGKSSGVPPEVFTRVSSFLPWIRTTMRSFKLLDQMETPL
From the text: as §1
(§6) Reaction mixtures with purified enzymes were compiled in an identical way. […] Substance P was added as the standard peptide except for the reaction mixtures with substance P or bradykinin as the peptide of interest, where angiotensin II (Bachem) was added.
as §3
as §4, with “10%.” for “10%. Precursor mass m/z 1570.65 (Glu1-Fibrinopeptide from the calibration mixture) was used to calibrate the MS/MS spectra to a mass tolerance of 0.1 Da.”
(§7) Identified fragments were confirmed using the MS/MS spectra and mMass 5.5.0 by Martin Strohalm. The relative intensities of the fragments were calculated as the ratio of the intensity of the peak of interest to the intensity of the peak of the standard peptide.

[6] = molecular target: T3, neutrophil elastase (Homo sapiens, UniProt P08246); test: Cleavage of peptides by purified neutrophil elastase, MALDI-TOF/TOF; conditions: 25 nM protease, 10 µM peptide; for Incubation time at which the first cleavage or decrease of the full-length peptide was observed, neutrophil elastase: 37 °C, time points 2, 5, 10, 30 min
T3 sequence (P08246 30-267): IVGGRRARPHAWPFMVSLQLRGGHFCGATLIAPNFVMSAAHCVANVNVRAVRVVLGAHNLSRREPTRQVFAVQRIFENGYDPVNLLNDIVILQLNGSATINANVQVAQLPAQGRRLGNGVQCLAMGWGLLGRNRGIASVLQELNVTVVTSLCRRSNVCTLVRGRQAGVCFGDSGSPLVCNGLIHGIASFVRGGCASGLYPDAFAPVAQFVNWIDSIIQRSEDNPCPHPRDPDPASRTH
From the text: as §1, §6, §3
as §4, with “10%.” for “10%. Precursor mass m/z 1570.65 (Glu1-Fibrinopeptide from the calibration mixture) was used to calibrate the MS/MS spectra to a mass tolerance of 0.1 Da.”
as §7

[7] = molecular target: pancreatic elastase I (Sus scrofa, UniProt P00772); test: Cleavage of peptides by purified pancreatic elastase, MALDI-TOF/TOF; conditions: 25 nM protease, 10 µM peptide; for Incubation time at which the first cleavage or decrease of the full-length peptide was observed, pancreatic elastase: 37 °C, time points 2, 5, 10, 30 min
pancreatic elastase I, sequence (P00772 27-266): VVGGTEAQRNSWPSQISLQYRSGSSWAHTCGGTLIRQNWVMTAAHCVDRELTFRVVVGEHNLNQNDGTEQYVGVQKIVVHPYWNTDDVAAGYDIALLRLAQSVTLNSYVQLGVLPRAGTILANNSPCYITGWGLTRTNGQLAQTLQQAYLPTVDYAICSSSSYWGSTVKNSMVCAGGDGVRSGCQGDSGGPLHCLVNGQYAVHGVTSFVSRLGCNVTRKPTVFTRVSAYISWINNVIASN
From the text: as §1, §6, §3
as §4, with “10%.” for “10%. Precursor mass m/z 1570.65 (Glu1-Fibrinopeptide from the calibration mixture) was used to calibrate the MS/MS spectra to a mass tolerance of 0.1 Da.”
as §7

[8] = PAR-based peptides, 37 °C, 2, 5, 10 and 30 min
[9] = 37 °C, 2, 5, 10 and 30 min, stopped with 2% TFA

Incubation time at which the first cleavage or decrease of the full-length peptide was observed, trypsin-1 [1]: 2 min
TL disarming (D), Trypsin-1 [1, 8]: −
TL unmasking (U), Trypsin-1 [1, 8]: +++ (ultrafast processing within 2 min)
Incubation time at which the first cleavage or decrease of the full-length peptide was observed, trypsin-3 [2]: 2 min
TL disarming (D), Trypsin-3 [2, 8]: −
TL unmasking (U), Trypsin-3 [2, 8]: +++ (ultrafast processing within 2 min)
Incubation time at which the first cleavage or decrease of the full-length peptide was observed, tryptase [3]: > 30 min
TL disarming (D), Tryptase [3, 8]: −
TL unmasking (U), Tryptase [3, 8]: −
Incubation time at which the first cleavage or decrease of the full-length peptide was observed, thrombin [4]: 2 min
TL disarming (D), Thrombin [4, 8]: −
TL unmasking (U), Thrombin [4, 8]: +++ (ultrafast processing within 2 min)
Incubation time at which the first cleavage or decrease of the full-length peptide was observed, cathepsin G [5]: > 30 min
TL disarming (D), Cathepsin G [5, 8]: −
TL unmasking (U), Cathepsin G [5, 8]: −
Incubation time at which the first cleavage or decrease of the full-length peptide was observed, neutrophil elastase [6]: > 30 min
TL disarming (D), Neutrophil Elastase [6, 8]: −
TL unmasking (U), Neutrophil Elastase [6, 8]: −
Incubation time at which the first cleavage or decrease of the full-length peptide was observed, pancreatic elastase [7]: > 30 min
TL disarming (D), Pancreatic Elastase [7, 8]: −
TL unmasking (U), Pancreatic Elastase [7, 8]: −
SMILES: CC[C@H](C)[C@H](NC(=O)[C@H](CO)NC(=O)[C@@H]1CCCN1C(=O)[C@@H](NC(=O)[C@H](CO)NC(=O)[C@H](CC(=O)O)NC(=O)[C@H](CC(=O)O)NC(=O)CNC(=O)CNC(=O)CNC(=O)[C@@H](NC(=O)[C@H](CO)NC(=O)CNC(=O)[C@H](CO)NC(=O)[C@H](CCC(=O)O)NC(=O)[C@H](CC(=O)O)NC(=O)[C@H](Cc1ccc(O)cc1)NC(=O)[C@@H](NC(=O)[C@H](CO)NC(=O)[C@@H]1CCCN1C(=O)[C@@H](NC(=O)[C@H](CCC(N)=O)NC(=O)[C@@H](NC(=O)CNC(=O)CN)[C@@H](C)O)[C@@H](C)O)C(C)C)[C@@H](C)O)[C@@H](C)O)C(=O)N[C@@H](CC(C)C)C(=O)N1CCC[C@H]1C(=O)N[C@@H](C)C(=O)N1CCC[C@H]1C(=O)N[C@@H](CCCNC(=N)N)C(=O)NCC(=O)N[C@@H](Cc1ccc(O)cc1)C(=O)N1CCC[C@H]1C(=O)NCC(=O)N[C@@H](CCC(N)=O)C(=O)N[C@H](C(=O)N[C@@H](CS)C(=O)N[C@@H](C)C(=O)N[C@@H](CC(N)=O)C(=O)N[C@@H](CC(=O)O)C(N)=O)C(C)C [PAR4-based] (H-GGTQTPSVYDESGSTGGGDDSTPSILPAPRGYPGQVCAND-NH2)

SMILES: CC[C@H](C)[C@H](NC(=O)[C@H](C)NC(=O)[C@H](CC(N)=O)NC(=O)[C@H](CCCCN)NC(=O)[C@H](Cc1ccccc1)NC(=O)[C@H](CC(C)C)NC(=O)[C@@H](NC(=O)[C@@H](NC(=O)[C@H](CC(C)C)NC(=O)[C@@H]1CCCN1C(=O)[C@@H](NC(=O)[C@H](CCC(N)=O)NC(=O)[C@H](CO)NC(=O)[C@H](CCCCN)NC(=O)[C@H](CCC(=O)O)NC(=O)[C@H](CO)NC(=O)[C@@H](NC(=O)[C@H](CCSC)NC(=O)[C@H](Cc1ccccc1)NC(=O)CNC(=O)CNC(=O)[C@@H](N)Cc1ccc(O)cc1)[C@@H](C)O)[C@@H](C)O)C(C)C)[C@@H](C)O)C(=O)N[C@H](C(=O)N[C@@H](CCCCN)C(=O)N[C@@H](CC(N)=O)C(=O)N[C@@H](C)C(=O)N[C@@H](Cc1ccc(O)cc1)C(=O)N[C@@H](CCCCN)C(=O)N[C@@H](CCCCN)C(=O)NCC(=O)N[C@@H](CCC(=O)O)C(=O)O)[C@@H](C)CC [β-endorphin]
Efficiency of the first cleavage in the peptide, Trypsin-1 [1, 9]: +++ (ultrafast processing within 2 min)
Incubation time at which the first cleavage or decrease of the full-length peptide was observed, trypsin-1 [1]: 2 min
Efficiency of the first cleavage in the peptide, Trypsin-3 [2, 9]: −
Incubation time at which the first cleavage or decrease of the full-length peptide was observed, trypsin-3 [2]: > 30 min
Efficiency of the first cleavage in the peptide, Tryptase [3, 9]: +++ (ultrafast processing within 2 min)
Incubation time at which the first cleavage or decrease of the full-length peptide was observed, tryptase [3]: 2 min
Efficiency of the first cleavage in the peptide, Thrombin [4, 9]: −
Incubation time at which the first cleavage or decrease of the full-length peptide was observed, thrombin [4]: > 30 min
Efficiency of the first cleavage in the peptide, Cathepsin G [5, 9]: +++ (ultrafast processing within 2 min)
Incubation time at which the first cleavage or decrease of the full-length peptide was observed, cathepsin G [5]: 2 min
Efficiency of the first cleavage in the peptide, Neutrophil Elastase [6, 9]: +++ (ultrafast processing within 2 min)
Incubation time at which the first cleavage or decrease of the full-length peptide was observed, neutrophil elastase [6]: 2 min
Efficiency of the first cleavage in the peptide, Pancreatic Elastase [7, 9]: +++ (ultrafast processing within 2 min)
Incubation time at which the first cleavage or decrease of the full-length peptide was observed, pancreatic elastase [7]: 2 min
